{"source": "patent US20200345728A1", "about": "“COMPOSITIONS AND METHODS FOR TREATMENT OF ATHEROSCLEROSIS” (NovMetaPharma Co., Ltd., priority 2019, published 2020)", "key": {"[1]": {"experiment": "DPPH colorimetric anti-oxidant assay", "type": "biochemical", "details": "incubation with DPPH, various concentrations", "description": "In this colorimetric assay, DPPH functions as a free radical that can be inactivated by anti-oxidant compounds resulting in loss of color. […] Zinc was not tested alone since it was not completely soluble in the organic solvents needed for the assay. Ascorbic Acid functions as an antioxidant positive control."}, "[2]": {"test_system": "RAW264.7 macrophage cells", "experiment": "FACS analysis of cell viability in M2 activated RAW264.7 cultures", "type": "cell-based", "description": "RAW264.7 macrophage cells, untreated and treated with IL-4 (20 ng/ml), were stained with 1:1000 diluted viability stain (BD Horizon Fixable Viability Stain 660). Cells were analyzed by FACS and gated for unstained (viable) and stained (non-viable) populations."}, "[3]": {"test_system": "RAW264.7 macrophage cells", "experiment": "Charcoal phagocytosis assay in activated RAW264.7 macrophage cells", "type": "cell-based", "details": "during M1 activation (1 μg/ml LPS/20 ng/ml IFN); 50 μM CHP, 10 μM Zn", "description": "RAW264.7 macrophage cells (ATCC® TIB-71) were activated to either inflammatory M1 macrophage phenotype (with 1 μg/ml LPS/20 ng/ml IFN) or to the anti-inflammatory M2 phenotype (with 20 ng/ml IL-4) in the presence or absence of Cyclo-Z (50 μM CHP/10 μM Zn) treatment. Charcoal dust was added to the culture as a marker of M1 phagocytosis activity.\nTo compare between CHP and Zinc effects in Cyclo-Z on charcoal binding activities, we determined the phagocytosis activity of CHP (50 μM CHP) or Zinc (10 μM Zn) alone or Cyclo-Z during activation of M1 macrophages (with 1 μg/ml LPS/20 ng/ml IFN)."}, "ROS in VSMCs": {"test_system": "ROS in VSMCs", "experiment": "ROS generation in VSMCs analyzed by FACS (CM-H2CFDA fluorescence)", "type": "cell-based", "details": "45 minutes", "description": "(§1) VSMC were seeded (1.25×10^5 cells/well in 12-well plates) and incubated at 37° C. for 24 hr. Cultures were then subjected to various treatments (as shown in Table 1) to induce ROS for 45 minutes (at 37° C.) along with 10 μM CM-H2CFDA (Molecular Probes, Inc., Eugene, Oreg.). CM-H2DCFDA is a chloromethyl derivative of H2DCFDA, useful as an indicator for ROS in cells. Subsequent oxidation of CM-H2CFDA yields a fluorescent adduct that is trapped inside the cell. At the end of treatment period cells were trypsinized, washed, and analyzed by FACS for ROS (CM-H2CFDA fluorescence) and viability using a viability stain (BD Horizon Fixable Viability Stain 660; BD Biosciences, San Jose, Calif.)."}, "VSMCs": {"test_system": "VSMCs", "experiment": "Cell viability in VSMCs analyzed by FACS (viability stain)", "type": "cell-based", "details": "45 minutes", "description": "as §1"}, "[4]": {"test_system": "mouse spleen cells (B-cell activation)", "experiment": "B-cell activation in mouse spleen cells", "type": "cell-based", "details": "alone, 4 days; LPS 1 μg/ml; Cyclo-Z 50 μM CHP/10 μM Zn", "description": "Mouse spleen cells were isolated from wild type C57BL/6J mice (The Jackson Laboratory; strain 000632) and plated under standard cell culture conditions in the presence or absence of Cyclo-Z (50 μM CHP/10 μM zinc) and/or LPS for 4 days. Nodules indicating increased B-cell activation and proliferation were visualized by microscopy."}, "[5]": {"details": "added with IL-4 (20 ng/ml), M2 activated"}}}
{"molecule": "O=C1N[C@@H](Cc2cnc[nH]2)C(=O)N2CCC[C@@H]12", "note": "[CHP, cyclo-Hispro]", "values": [{"measurement": "anti-oxidant activity (DPPH)", "setting": "[1]", "value": "concentration dependent anti-oxidant activity"}, {"measurement": "Percent Non-Viability", "setting": "[2]; [5]", "value": 14.13, "unit": "%"}, {"measurement": "Percent Viability (Stained)", "setting": "[2]; [5]", "value": 73.63, "unit": "%"}, {"measurement": "charcoal uptake (phagocytosis activity)", "setting": "[3]", "value": "did not show any effects"}]}
{"molecule": "OO", "note": "[H2O2, hydrogen peroxide]", "values": [{"measurement": "ROS Population", "setting": "ROS in VSMCs; H2O2 (5 μL) alone", "value": 81.33}, {"measurement": "ROS Population", "setting": "ROS in VSMCs; H2O2 (10 μL) alone", "value": 50.63}, {"measurement": "Viability Population", "setting": "VSMCs; H2O2 (5 μL) alone", "value": 22.31}, {"measurement": "Viability Population", "setting": "VSMCs; H2O2 (10 μL) alone", "value": 7.33}]}
{"molecule": "OC[C@H]1OC(O)[C@H](O)[C@@H](O)[C@@H]1O", "note": "(stereo partly shown) [HG]", "values": [{"measurement": "ROS Population", "setting": "ROS in VSMCs; HG (50 mM) alone", "value": 0.04}, {"measurement": "ROS Population", "setting": "ROS in VSMCs; HG (100 mM) alone", "value": 0.04}, {"measurement": "Viability Population", "setting": "VSMCs; HG (50 mM) alone", "value": 61.63}, {"measurement": "Viability Population", "setting": "VSMCs; HG (100 mM) alone", "value": 63.9}]}
{"molecule": "[Cl-].[Cl-].[Zn+2]", "note": "[Zinc, ZnCl2]", "values": [{"measurement": "Percent Non-Viability", "setting": "[2]; [5]", "value": 33.49, "unit": "%"}, {"measurement": "Percent Viability (Stained)", "setting": "[2]; [5]", "value": 58.47, "unit": "%"}, {"measurement": "charcoal uptake (phagocytosis activity)", "setting": "[3]", "value": "somewhat effective"}]}
{"molecule": "IL-4: Interleukin-4, cytokine used to activate macrophages to M2 phenotype", "values": [{"measurement": "Percent Non-Viability", "setting": "[2]; IL-4 (20 ng/ml) alone", "value": 17.63, "unit": "%"}]}
{"molecule": "lipopolysaccharide [LPS]", "values": [{"measurement": "ROS Population", "setting": "ROS in VSMCs; LPS alone", "value": 0.09}, {"measurement": "Viability Population", "setting": "VSMCs; LPS alone", "value": 75.81}, {"measurement": "B-cell activation/proliferation (nodules)", "setting": "[4]", "value": "induced some B-cell activation/proliferation"}]}
